Laboratory results published in patent publication US20230027361A1, “METTL3 MODULATORS” (priority 2019, published 2023).

target: PRMT5-MEP50 (Homo sapiens, UniProt O14744); assay: PRMT5 Assay (PRMT5 biochemical assay)
Procedure: Assays were performed in a 25 μl-volume in 384-well V-bottom polypropylene microplates (Greiner Bio-One, cat. No. 781280) at ambient temperature. Optimized 1× assay buffer was 20 mM Tris-HCl pH 8.0, 1 mM DTT, […]. For compound screening PRMT5-MEP50 (final concentration, f.c.=2.5 nM) was added using a Multidrop Combi (ThermoFisher Scientific, Waltham, Mass.) and preincubated for 5 min. Reactions were started by adding 3′ biotinylated histone H4 peptide acetylated on serine 1 (Ac-[…]-Biotin) (f.c.=100 nM) and 3H-SAM (f.c.=250 nM) substrates. Reactions proceeded for 60 minutes and were quenched with excess non-radioactive SAM (f.c.=15 μM). The reactions were then transferred to streptavidin-coated flashplates and incubated for 2 hours at 25° C. Following two washing cycles with 0.1% Tween-20, the plates were sealed and read on a TopCount (PerkinElmer, Waltham, Mass.) plate-based scintillation counter. For determination of kinetic parameters, reaction times were optimized so that measurements were taken during the initial velocity phase of the reaction.

PRMT5-MEP50, sequence (O14744 whole entry): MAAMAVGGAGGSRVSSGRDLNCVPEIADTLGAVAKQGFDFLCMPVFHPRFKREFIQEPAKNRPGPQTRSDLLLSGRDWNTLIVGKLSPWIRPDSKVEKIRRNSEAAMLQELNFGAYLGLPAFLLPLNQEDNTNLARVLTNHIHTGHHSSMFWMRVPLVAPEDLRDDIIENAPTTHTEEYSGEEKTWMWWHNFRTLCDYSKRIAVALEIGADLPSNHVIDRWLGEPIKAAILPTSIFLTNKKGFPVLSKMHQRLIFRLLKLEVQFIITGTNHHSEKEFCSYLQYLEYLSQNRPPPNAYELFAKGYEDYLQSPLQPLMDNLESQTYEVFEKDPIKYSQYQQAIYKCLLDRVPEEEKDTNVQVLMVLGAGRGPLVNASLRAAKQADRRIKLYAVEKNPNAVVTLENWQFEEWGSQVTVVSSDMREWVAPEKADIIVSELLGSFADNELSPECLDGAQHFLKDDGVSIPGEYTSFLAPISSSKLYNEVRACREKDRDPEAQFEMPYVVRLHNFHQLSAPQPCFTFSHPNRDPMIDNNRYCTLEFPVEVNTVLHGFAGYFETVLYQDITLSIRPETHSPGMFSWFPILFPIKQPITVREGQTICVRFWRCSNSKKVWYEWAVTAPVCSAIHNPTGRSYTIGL
PRMT5-MEP50, sequence (Q9BQA1 whole entry partner): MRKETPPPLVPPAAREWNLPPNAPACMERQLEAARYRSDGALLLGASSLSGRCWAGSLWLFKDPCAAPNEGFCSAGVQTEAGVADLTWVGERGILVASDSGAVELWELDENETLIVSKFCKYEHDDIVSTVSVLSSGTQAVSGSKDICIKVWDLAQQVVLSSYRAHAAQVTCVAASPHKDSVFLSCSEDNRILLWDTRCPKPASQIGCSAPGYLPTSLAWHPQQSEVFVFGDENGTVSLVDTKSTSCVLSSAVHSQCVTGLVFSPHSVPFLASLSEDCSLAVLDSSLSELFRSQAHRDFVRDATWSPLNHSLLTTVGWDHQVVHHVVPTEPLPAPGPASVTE

CN(CCS(C)(=O)=O)c1ccc2ccc(OC[C@H]3O[C@@H](n4cc(-c5ccn(C)n5)c5c(N)ncnc54)[C@@H](F)[C@@H]3O)cc2n1 [I-166] and CN(c1ccc2ccc(OC[C@H]3O[C@@H](n4cc(-c5ccn(C)n5)c5c(N)ncnc54)[C@@H](F)[C@@H]3O)cc2n1)C1CCC1 [I-202] cannot be ordered by IC50: over 1 µM for the first, over 1 µM for the second.

CCc1nc2cc(OC[C@H]3O[C@@H](n4cc(-c5ccn(C)n5)c5c(N)ncnc54)[C@@H](F)[C@@H]3O)ccc2o1 [I-168] and CNc1nc2cc(OC[C@H]3O[C@@H](n4cc(-c5ccn(C)n5)c5c(N)ncnc54)[C@@H](F)[C@@H]3O)ccc2o1 [I-173] cannot be ordered by IC50: over 1 µM for the first, over 1 µM for the second.

CCc1nc2cc(OC[C@H]3O[C@@H](n4cc(-c5ccn(C)n5)c5c(N)ncnc54)[C@@H](F)[C@@H]3O)ccc2[nH]1 [I-172] and CNc1nc2cc(OC[C@H]3O[C@@H](n4cc(-c5ccn(C)n5)c5c(N)ncnc54)[C@@H](F)[C@@H]3O)ccc2s1 [I-176] cannot be ordered by IC50: over 1 µM for the first, over 1 µM for the second.

Cn1ccc(-c2cn([C@@H]3O[C@H](COc4ccc(C(=O)N5CCNCC5)c(N)c4)[C@@H](O)[C@@H]3F)c3ncnc(N)c23)n1 [I-174] and Cn1ccc(-c2cn([C@@H]3O[C@H](COc4ccc5ccc(C(=O)N6CCC6)nc5c4)[C@@H](O)[C@@H]3F)c3ncnc(N)c23)n1 [I-203] cannot be ordered by IC50: over 1 µM for the first, over 1 µM for the second.

Cn1ccc(-c2cn([C@@H]3O[C@H](COc4ccc5sc(N6CCC6)nc5c4)[C@@H](O)[C@@H]3F)c3ncnc(N)c23)n1 [I-177] and Cn1ccc(-c2cn([C@@H]3O[C@H](COc4ccc5ncc(N6CCC6)nc5c4)[C@@H](O)[C@@H]3F)c3ncnc(N)c23)n1 [I-189] cannot be ordered by IC50: over 1 µM for the first, over 1 µM for the second.

Cn1ccc(-c2cn([C@H]3C[C@H](O)[C@@H](COc4ccc5ccc(N6CC(N)C6)nc5c4)O3)c3ncnc(N)c23)n1 [I-182] and Cn1ccc(-c2cn([C@H]3C[C@H](O)[C@@H](CCc4ccc5ccc(N6CCC6)nc5c4)O3)c3ncnc(N)c23)n1 [I-194] cannot be ordered by IC50: over 1 µM for the first, over 1 µM for the second.

Compared with Cc1ccn(-c2cn([C@@H]3O[C@H](COc4ccc5ccc(N6CC(N)C6)nc5c4)[C@@H](O)[C@@H]3F)c3ncnc(N)c23)n1 [I-186], Cc1ccn(-c2cn([C@@H]3O[C@H](COc4ccc5ccc(N6CC(O)C6)nc5c4)[C@@H](O)[C@@H]3F)c3ncnc(N)c23)n1 [I-187] is higher in IC50: 0.1 to 1 µM for the first, over 1 µM for the second. The first is the more potent here.

CNc1nc2cc(OC[C@H]3O[C@@H](n4cc(-n5cccn5)c5c(N)ncnc54)[C@@H](F)[C@@H]3O)ccc2s1 [I-195] and Cn1ccc(-c2cn([C@@H]3O[C@H](COc4ccc5ccc(NC6CNC6)nc5c4)[C@@H](O)[C@@H]3F)c3ncnc(N)c23)n1 [I-196] cannot be ordered by IC50: over 1 µM for the first, over 1 µM for the second.

Cn1ccc(-c2cn([C@@H]3O[C@H](COc4ccc5ccc(N[C@H]6C[C@H](N)C6)nc5c4)[C@@H](O)[C@@H]3F)c3ncnc(N)c23)n1 [I-197] and Cn1ccc(-c2cn([C@@H]3O[C@H](COc4ccc5ccc(N[C@H]6C[C@@H](N)C6)nc5c4)[C@@H](O)[C@@H]3F)c3ncnc(N)c23)n1 [I-201] fall in the same range of IC50: 0.1 to 1 µM for the first, 0.1 to 1 µM for the second.

For Cn1ccc(-c2cn([C@@H]3O[C@H](COc4ccc5ccc(NC67CC(C6)C7)nc5c4)[C@@H](O)[C@@H]3F)c3ncnc(N)c23)n1 [I-200], the IC50 was 0.1 to 1 µM.

target: METTL3/METTL14 (Homo sapiens, UniProt Q86U44); assay: METTL3-14 Standard Enzyme Assay (METTL3 biochemical assay)
Sequence (Q86U44 whole entry, species assumed): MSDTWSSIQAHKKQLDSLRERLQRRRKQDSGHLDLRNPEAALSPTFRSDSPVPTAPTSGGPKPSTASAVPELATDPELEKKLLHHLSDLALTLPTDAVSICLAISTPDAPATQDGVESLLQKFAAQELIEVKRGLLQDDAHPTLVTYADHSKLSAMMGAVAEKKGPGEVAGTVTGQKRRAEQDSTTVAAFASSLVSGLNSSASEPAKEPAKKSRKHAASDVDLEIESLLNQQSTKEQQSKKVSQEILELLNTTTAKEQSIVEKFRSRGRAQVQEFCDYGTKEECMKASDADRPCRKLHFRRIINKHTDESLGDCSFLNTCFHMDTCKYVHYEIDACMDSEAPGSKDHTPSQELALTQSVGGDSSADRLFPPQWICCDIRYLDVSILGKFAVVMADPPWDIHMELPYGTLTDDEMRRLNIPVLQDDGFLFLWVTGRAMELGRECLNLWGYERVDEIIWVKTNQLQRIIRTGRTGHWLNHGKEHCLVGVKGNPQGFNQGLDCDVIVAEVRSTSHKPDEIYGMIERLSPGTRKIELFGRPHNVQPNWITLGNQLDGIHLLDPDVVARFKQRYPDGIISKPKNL
Sequence (Q9HCE5 whole entry partner, species assumed): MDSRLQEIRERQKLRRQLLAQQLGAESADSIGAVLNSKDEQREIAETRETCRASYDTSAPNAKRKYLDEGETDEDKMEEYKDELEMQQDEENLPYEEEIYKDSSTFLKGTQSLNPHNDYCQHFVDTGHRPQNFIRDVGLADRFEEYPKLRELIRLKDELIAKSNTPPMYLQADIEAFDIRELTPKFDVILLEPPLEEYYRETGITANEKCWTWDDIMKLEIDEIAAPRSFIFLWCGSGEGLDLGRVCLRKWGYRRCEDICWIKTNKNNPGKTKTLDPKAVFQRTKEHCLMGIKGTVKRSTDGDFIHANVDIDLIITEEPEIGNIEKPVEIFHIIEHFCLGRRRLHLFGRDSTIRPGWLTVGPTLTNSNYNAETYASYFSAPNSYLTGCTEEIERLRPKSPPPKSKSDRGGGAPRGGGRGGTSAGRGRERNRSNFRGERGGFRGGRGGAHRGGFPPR
Procedure: Assays were performed in a 25 μl-volume in 384-well V-bottom polypropylene microplates (Greiner Bio-One, cat. No. 781280) at ambient temperature. Optimized 1× assay buffer was 20 mM HEPES pH 7.5, 50 mM KCl, 250 μM MgCl2, 1 mM DTT, 0.01% Tween, 0.01% BSG, 0.004 U/μl RNAseOUT (cat. No. 10777019, ThermoFisher Scientific, Waltham, Mass.). For compound screening METTL3/METTL14 (final concentration, f.c.=2.5 nM) was added using a Multidrop Combi (ThermoFisher Scientific, Waltham, Mass.) and preincubated for 5 min. Reactions were started by adding 3′ biotinylated RNA ([…]-biotin) (f.c.=100 nM) and 3H-SAM (f.c.=100 nM) substrates. Reactions proceeded for 30 minutes and were quenched with excess non-radioactive SAM (f.c.=15 μM). The reactions were then transferred to streptavidin-coated flashplates and incubated for 2 hours at 25° C. Following two washing cycles with 0.1% Tween-20, the plates were sealed and read on a TopCount (PerkinElmer, Waltham, Mass.) plate-based scintillation counter. For determination of kinetic parameters, reaction times were optimized so that measurements were taken during the initial velocity phase of the reaction.

First: CN(CCS(C)(=O)=O)c1ccc2ccc(OC[C@H]3O[C@@H](n4cc(-c5ccn(C)n5)c5c(N)ncnc54)[C@@H](F)[C@@H]3O)cc2n1 [I-166]
Second: CN(c1ccc2ccc(OC[C@H]3O[C@@H](n4cc(-c5ccn(C)n5)c5c(N)ncnc54)[C@@H](F)[C@@H]3O)cc2n1)C1CCC1 [I-202]
The IC50 of the first is higher: 0.1 to 1 µM for the first, under 0.01 µM for the second.

Compared with CCc1nc2cc(OC[C@H]3O[C@@H](n4cc(-c5ccn(C)n5)c5c(N)ncnc54)[C@@H](F)[C@@H]3O)ccc2o1 [I-168], CNc1nc2cc(OC[C@H]3O[C@@H](n4cc(-c5ccn(C)n5)c5c(N)ncnc54)[C@@H](F)[C@@H]3O)ccc2o1 [I-173] is lower in IC50: over 1 µM for the first, 0.1 to 1 µM for the second. The second is the more potent here.

CCc1nc2cc(OC[C@H]3O[C@@H](n4cc(-c5ccn(C)n5)c5c(N)ncnc54)[C@@H](F)[C@@H]3O)ccc2[nH]1 [I-172] and CNc1nc2cc(OC[C@H]3O[C@@H](n4cc(-c5ccn(C)n5)c5c(N)ncnc54)[C@@H](F)[C@@H]3O)ccc2s1 [I-176] fall in the same range of IC50: 0.1 to 1 µM for the first, 0.1 to 1 µM for the second.

First: Cn1ccc(-c2cn([C@@H]3O[C@H](COc4ccc(C(=O)N5CCNCC5)c(N)c4)[C@@H](O)[C@@H]3F)c3ncnc(N)c23)n1 [I-174]
Second: Cn1ccc(-c2cn([C@@H]3O[C@H](COc4ccc5ccc(C(=O)N6CCC6)nc5c4)[C@@H](O)[C@@H]3F)c3ncnc(N)c23)n1 [I-203]
The IC50 of the first is lower: 0.1 to 1 µM for the first, over 1 µM for the second. The first is the more potent here.

Cn1ccc(-c2cn([C@@H]3O[C@H](COc4ccc5sc(N6CCC6)nc5c4)[C@@H](O)[C@@H]3F)c3ncnc(N)c23)n1 [I-177] and Cn1ccc(-c2cn([C@@H]3O[C@H](COc4ccc5ncc(N6CCC6)nc5c4)[C@@H](O)[C@@H]3F)c3ncnc(N)c23)n1 [I-189] fall in the same range of IC50: 0.01 to 0.1 µM for the first, 0.01 to 0.1 µM for the second.

Cn1ccc(-c2cn([C@H]3C[C@H](O)[C@@H](COc4ccc5ccc(N6CC(N)C6)nc5c4)O3)c3ncnc(N)c23)n1 [I-182] and Cn1ccc(-c2cn([C@H]3C[C@H](O)[C@@H](CCc4ccc5ccc(N6CCC6)nc5c4)O3)c3ncnc(N)c23)n1 [I-194] cannot be ordered by IC50: under 0.01 µM for the first, under 0.01 µM for the second.

Compared with Cc1ccn(-c2cn([C@@H]3O[C@H](COc4ccc5ccc(N6CC(N)C6)nc5c4)[C@@H](O)[C@@H]3F)c3ncnc(N)c23)n1 [I-186], Cc1ccn(-c2cn([C@@H]3O[C@H](COc4ccc5ccc(N6CC(O)C6)nc5c4)[C@@H](O)[C@@H]3F)c3ncnc(N)c23)n1 [I-187] is lower in IC50: 0.01 to 0.1 µM for the first, under 0.01 µM for the second. The second is the more potent here.

CNc1nc2cc(OC[C@H]3O[C@@H](n4cc(-n5cccn5)c5c(N)ncnc54)[C@@H](F)[C@@H]3O)ccc2s1 [I-195] and Cn1ccc(-c2cn([C@@H]3O[C@H](COc4ccc5ccc(NC6CNC6)nc5c4)[C@@H](O)[C@@H]3F)c3ncnc(N)c23)n1 [I-196] fall in the same range of IC50: 0.1 to 1 µM for the first, 0.1 to 1 µM for the second.

Cn1ccc(-c2cn([C@@H]3O[C@H](COc4ccc5ccc(N[C@H]6C[C@H](N)C6)nc5c4)[C@@H](O)[C@@H]3F)c3ncnc(N)c23)n1 [I-197] and Cn1ccc(-c2cn([C@@H]3O[C@H](COc4ccc5ccc(N[C@H]6C[C@@H](N)C6)nc5c4)[C@@H](O)[C@@H]3F)c3ncnc(N)c23)n1 [I-201] fall in the same range of IC50: 0.01 to 0.1 µM for the first, 0.01 to 0.1 µM for the second.

Work on Cn1ccc(-c2cn([C@@H]3O[C@H](COc4ccc5ccc(NC67CC(C6)C7)nc5c4)[C@@H](O)[C@@H]3F)c3ncnc(N)c23)n1 [I-200] yielded an IC50 of under 0.01 µM.
